According to patent US12091426B2, “Bifunctional degraders of hematopoietic progenitor kinase and therapeutic uses thereof” (Nurix Therapeutics, Inc., priority 2021, dated 2024):

Biological target: T1, HPK1 (Homo sapiens, UniProt Q92918)
T1 construct: A HiBiT tag was introduced by CRISPR on the N terminus of HPK1 in Jurkat cells; host or cells: Jurkat cells (ATCC TIB-152), monoclonal line with CRISPR knock-in of HiBiT at the endogenous HPK1 locus
Assay: HPK1 Cellular HiBit Degradation Assay
Format: cell-based
Conditions: HiBiT HPK1 Jurkat cells, 24 hrs; for DC50: concentration at which 50% of HPK1 was remaining, read-out: DC50 Category; for Dmax: Jurkat, maximum degradation vs DMSO vehicle control, read-out: Dmax Category
Method in brief: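 Jurkat cells with CRISPR N-terminal HiBiT-tagged endogenous HPK1 treated 24 h at 37 °C with 11-point, 3.16-fold dilutions (10 uM to 0.1 nM final). HiBiT lytic luminescence gives % HPK1 remaining versus DMSO, with parental cells as background. Four-parameter fit yields DC50; Dmax = 100 minus lowest % remaining.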

T1 sequence (Q92918 whole entry): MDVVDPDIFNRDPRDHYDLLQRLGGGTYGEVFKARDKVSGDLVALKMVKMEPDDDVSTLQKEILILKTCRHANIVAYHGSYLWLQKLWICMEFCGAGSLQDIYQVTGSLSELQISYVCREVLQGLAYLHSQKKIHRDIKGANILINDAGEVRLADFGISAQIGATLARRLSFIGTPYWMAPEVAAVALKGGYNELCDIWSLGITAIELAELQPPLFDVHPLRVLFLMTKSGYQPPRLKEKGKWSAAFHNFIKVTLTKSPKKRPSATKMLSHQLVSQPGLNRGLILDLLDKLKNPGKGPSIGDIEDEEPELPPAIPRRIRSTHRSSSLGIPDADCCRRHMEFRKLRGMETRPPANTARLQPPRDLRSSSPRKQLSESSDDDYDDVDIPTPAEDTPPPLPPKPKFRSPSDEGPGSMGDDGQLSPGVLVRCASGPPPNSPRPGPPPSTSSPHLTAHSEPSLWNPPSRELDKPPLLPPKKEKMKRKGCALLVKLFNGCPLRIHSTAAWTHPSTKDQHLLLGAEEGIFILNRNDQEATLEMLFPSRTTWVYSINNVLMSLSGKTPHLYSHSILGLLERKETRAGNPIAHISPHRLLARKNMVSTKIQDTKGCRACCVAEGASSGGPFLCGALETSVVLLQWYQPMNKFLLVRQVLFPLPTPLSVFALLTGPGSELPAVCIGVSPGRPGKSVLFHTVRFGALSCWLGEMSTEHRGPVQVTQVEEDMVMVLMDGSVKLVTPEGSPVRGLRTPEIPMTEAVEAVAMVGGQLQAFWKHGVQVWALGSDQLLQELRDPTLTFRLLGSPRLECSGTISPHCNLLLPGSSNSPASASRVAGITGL

SMILES | DC50 | Dmax
CC(C)n1cnc2cc(-c3ccc4c(c3)N([C@H]3C[C@@H](N5C6COCC5C6)C3)C(=O)C43CCN(C(=O)C4(C)CCN(C(=O)C5CCN(c6ccc(C7CCC(=O)NC7=O)cc6)CC5)CC4)CC3)nc(NC3CC3)c21 (mixture of isomers) [Example 195, (3RS)-3-(4-{4-[4-({6-[4-(cyclopropylamino)-3-(propan-2-yl)-3H-imidazo[4,5-c]pyridin-6-yl]-2-oxo-1-[(1S,3S)-3-{3-oxa-6-Azabicyclo[3.1.1]heptan-6-yl}cyclobutyl]-1,2-dihydrospiro[indole-3,4′-piperidin]-1′-yl}carbonyl)-4-methylpiperidine-1-carbonyl]piperidin-1-yl}phenyl)piperidine-2,6-dione] | 500 to 1000 nM | 50 to 70%
CC(C)n1cnc2cc(-c3ccc4c(c3)N([C@H]3C[C@@H](N5CCCCC5)C3)C(=O)C43CCN(C(=O)[C@H]4CCN(C(=O)C5CCN(c6ccc(C7CCC(=O)NC7=O)cn6)CC5)C[C@H]4C)CC3)nc(NC3CC3)c21 (mixture of isomers) [Example 247, (3RS)-3-(6-{4-[(3S,4S)-4-({6-[4-(cyclopropylamino)-3-(propan-2-yl)-3H-imidazo[4,5-c]pyridin-6-yl]-2-oxo-1-[(1S,3S)-3-(piperidin-1-yl)cyclobutyl]-1,2-dihydrospiro[indole-3,4′-piperidin]-1′-yl}carbonyl)-3-methylpiperidine-1-carbonyl]piperidin-1-yl}pyridin-3-yl)piperidine-2,6-dione] | < 100 nM | 70 to 85%
CC(C)n1cnc2cc(-c3ccc4c(c3)N([C@H]3C[C@@H](N5CCCCC5)C3)C(=O)C43CCN(C(=O)C4(C)CCN(C(=O)C5CCN(c6ccc(C7CCC(=O)NC7=O)cn6)CC5)CC4)CC3)nc(NC3CCOCC3)c21 (mixture of isomers) [Example 214, (3RS)-3-[6-(4-{4-methyl-4-[(6-{4-[(oxan-4-yl)amino]-3-(propan-2-yl)-3H-imidazo[4,5-c]pyridin-6-yl}-2-oxo-1-[(1S,3S)-3-(piperidin-1-yl)cyclobutyl]-1,2-dihydrospiro[indole-3,4′-piperidin]-1′-yl)carbonyl]piperidine-1-carbonyl}piperidin-1-yl)pyridin-3-yl]piperidine-2,6-dione] | < 100 nM | 70 to 85%
CC(C)n1cnc2cc(-c3ccc4c(c3)N([C@H]3C[C@@H](N5CCCCC5)C3)C(=O)C43CCN(C(=O)C4CCN(C(=O)C5CCN(c6ncc(C7CCC(=O)NC7=O)cn6)CC5)CC4)CC3)nc(Nc3ccccc3F)c21 (stereo partly drawn) [Example 90, 3-(2-(4-(4-(6-(4-((2-fluorophenyl)amino)-3-isopropyl-3H-imidazo[4,5-c]pyridin-6-yl)-2-oxo-1-((1S,3S)-3-(piperidin-1-yl)cyclobutyl)spiro[indoline-3,4′-piperidine]-1′-carbonyl)piperidine-1-carbonyl)piperidin-1-yl)pyrimidin-5-yl)piperidine-2,6-dione] | < 100 nM | 70 to 85%

Other lines, results leading:

DC50 | Dmax | SMILES
< 100 nM | 70 to 85% | CC(C)n1cnc2cc(-c3ccc4c(c3)N([C@H]3C[C@@H](N5CCCCC5)C3)C(=O)C43CCN(C(=O)[C@H]4CC[C@@H](C(=O)N5CCC(Nc6ccc(C7CCC(=O)NC7=O)cn6)CC5)CC4)CC3)nc(Nc3ccccc3F)c21 (mixture of isomers) [Example 30, (3RS)-3-[6-({1-[(1S,4S)-4-[(6-{4-[(2-fluorophenyl)amino]-3-(propan-2-yl)-3H-imidazo[4,5-c]pyridin-6-yl}-2-oxo-1-[(1S,3S)-3-(piperidin-1-yl)cyclobutyl]-1,2-dihydrospiro[indole-3,4′-piperidin]-1′-yl)carbonyl]cyclohexanecarbonyl]piperidin-4-yl}amino)pyridin-3-yl]piperidine-2,6-dione]
< 100 nM | 70 to 85% | CC(C)n1cnc2cc(-c3ccc4c(c3)N([C@H]3C[C@@H](N5CCCCC5)C3)C(=O)C43CCN(C(=O)[C@H]4CC[C@H](C(=O)N5CCC(N(C)c6ccc(C7CCC(=O)NC7=O)cn6)CC5)CC4)CC3)nc(NC3CC3)c21 (mixture of isomers) [Example 137, (3RS)-3-{6-[methyl({1-[(1R,4R)-4-({6-[4-(cyclopropylamino)-3-(propan-2-yl)-3H-imidazo[4,5-c]pyridin-6-yl]-2-oxo-1-[(1S,3S)-3-(piperidin-1-yl)cyclobutyl]-1,2-dihydrospiro[indole-3,4′-piperidin]-1′-yl}carbonyl)cyclohexanecarbonyl]piperidin-4-yl})amino]pyridin-3-yl}piperidine-2,6-dione]
100 to 500 nM | 70 to 85% | CC(C)n1cnc2cc(-c3ccc4c(c3)N([C@H]3C[C@@H](N5CCCCC5)C3)C(=O)C43CCN(C(=O)C4CCC5(CCC5)N(C(=O)C5CCN(c6ccc(C7CCC(=O)NC7=O)cn6)CC5)C4)CC3)nc(NC3CC3)c21 (mixture of isomers) [Example 290, (3RS)-3-(6-{4-[7-({6-[4-(cyclopropylamino)-3-(propan-2-yl)-3H-imidazo[4,5-c]pyridin-6-yl]-2-oxo-1-[(1S,3S)-3-(piperidin-1-yl)cyclobutyl]-1,2-dihydrospiro[indole-3,4′-piperidin]-1′-yl}carbonyl)-5-azaspiro[3.5]nonane-5-carbonyl]piperidin-1-yl}pyridin-3-yl)piperidine-2,6-dione]
100 to 500 nM | 50 to 70% | COC1CC(C(=O)N2CCC3(CC2)C(=O)N([C@H]2C[C@@H](N4CCCCC4)C2)c2cc(-c4cc5ncn(C(C)C)c5c(NC5CC5)n4)ccc23)CN(C(=O)C2CCN(c3ccc(C4CCC(=O)NC4=O)cn3)CC2)C1 (mixture of isomers) [Example 256, (3RS)-3-(6-{4-[3-({6-[4-(cyclopropylamino)-3-(propan-2-yl)-3H-imidazo[4,5-c]pyridin-6-yl]-2-oxo-1-[(1S,3S)-3-(piperidin-1-yl)cyclobutyl]-1,2-dihydrospiro[indole-3,4′-piperidin]-1′-yl}carbonyl)-5-methoxypiperidine-1-carbonyl]piperidin-1-yl}pyridin-3-yl)piperidine-2,6-dione]
< 100 nM | > 85% | CC(C)n1cnc2cc(-c3ccc4c(c3)N([C@H]3C[C@@H](N5CCCCC5)C3)C(=O)C43CCN(C(=O)C4CCN(C(=O)C5CCN(c6ccc(N7CCC(=O)NC7=O)cc6)CC5)CC4)CC3)nc(Nc3ccccc3F)c21 [Example 70, 1-[4-(4-{4-[(6-{4-[(2-fluorophenyl)amino]-3-(propan-2-yl)-3H-imidazo[4,5-c]pyridin-6-yl}-2-oxo-1-[(1S,3S)-3-(piperidin-1-yl)cyclobutyl]-1,2-dihydrospiro[indole-3,4′-piperidin]-1′-yl)carbonyl]piperidine-1-carbonyl}piperidin-1-yl)phenyl]-1,3-diazinane-2,4-dione]
100 to 500 nM | 50 to 70% | CC(C)n1cnc2cc(-c3ccc4c(c3)N([C@H]3C[C@@H](N5CCCCC5)C3)C(=O)C43CCN(C(=O)[C@H]4CC[C@@H](C(=O)N5CCC(N(C)c6ccc(C7CCC(=O)NC7=O)cc6)CC5)CC4)CC3)nc(NC3CC3)c21 (mixture of isomers) [Example 228, (3RS)-3-{4-[methyl({1-[(1S,4S)-4-({6-[4-(cyclopropylamino)-3-(propan-2-yl)-3H-imidazo[4,5-c]pyridin-6-yl]-2-oxo-1-[(1S,3S)-3-(piperidin-1-yl)cyclobutyl]-1,2-dihydrospiro[indole-3,4′-piperidin]-1′-yl}carbonyl)cyclohexanecarbonyl]piperidin-4-yl})amino]phenyl}piperidine-2,6-dione]
